We go through 15 compounds from ChEMBL document CHEMBL6096649, “Enantiomeric C-6 fluorinated swainsonine derivatives as highly selective and potent inhibitors of α-mannosidase and α-l-rhamnosidase: Design, synthesis and structure-activity relationship study” (Eur J Med Chem, 2025).

Assay [1] is described as follows: Inhibition of Penicillium decumbens alpha-L-rhamnosidase using p-nitrophenyl glycoside as substrate assessed as release of p-nitrophenol by spectrometric analysis.
The nature of assay [2]: Inhibition of human liver Alpha-mannosidase.
Assay [3] concerns the target Alpha-glucosidase (Saccharomyces cerevisiae S288c) (UniProt P53341+P38158+P07265). As to the kind of experiment: Inhibition of yeast Alpha-glucosidase using p-nitrophenyl glycoside as substrate assessed as p-nitrophenol release at 1000 uM by spectrometric analysis relative to control. Format: protein assay.
For a further assay, the system named is Oryza sativa. As to the kind of experiment: Inhibition of rice Alpha-glucosidase using p-nitrophenyl glycoside as substrate assessed as p-nitrophenol release at 1000 uM by spectrometric analysis relative to control.
For a further assay, the species on record is Rattus norvegicus. As to the kind of experiment: Inhibition of rat intestinal Alpha-glucosidase using p-nitrophenyl glycoside as substrate assessed as p-nitrophenol release at 1000 uM by spectrometric analysis relative to control.
Assay [4] concerns the target Alpha glucosidase (Homo sapiens) (UniProt O43451+P10253+P14410+Q2M2H8). Put plainly: Inhibition of human Alpha-glucosidase using p-nitrophenyl glycoside as substrate assessed as p-nitrophenol release at 1000 uM by spectrometric analysis relative to control. Format: protein assay.
The test system of the next assay is Prunus dulcis. As to the kind of experiment: Inhibition of almond Beta-glucosidase using p-nitrophenyl glycoside as substrate assessed as release of p-nitrophenol at 1000 uM by spectrometric analysis relative to control.
The species entered for assay [5] is Bos taurus. Put plainly: Inhibition of bovine liver beta-glucosidase using p-nitrophenyl glycoside as substrate assessed as release of p-nitrophenol at 1000 uM by spectrometric analysis relative to control.
For the next assay, the species on record is Homo sapiens. As to the kind of experiment: Inhibition of human lysosome beta-glucosidase using p-nitrophenyl glycoside as substrate assessed as release of p-nitrophenol at 1000 uM by spectrometric analysis relative to control.
The target in assay [6] is Alpha-galactosidase (Coffea arabica) (UniProt Q42656). As to the kind of experiment: Inhibition of coffee bean alpha-galactosidase using p-nitrophenyl glycoside as substrate assessed as release of p-nitrophenol at 1000 uM by spectrometric analysis relative to control.
Chain of Alpha-galactosidase (Coffea arabica) (Q42656 16-378 limits assumed): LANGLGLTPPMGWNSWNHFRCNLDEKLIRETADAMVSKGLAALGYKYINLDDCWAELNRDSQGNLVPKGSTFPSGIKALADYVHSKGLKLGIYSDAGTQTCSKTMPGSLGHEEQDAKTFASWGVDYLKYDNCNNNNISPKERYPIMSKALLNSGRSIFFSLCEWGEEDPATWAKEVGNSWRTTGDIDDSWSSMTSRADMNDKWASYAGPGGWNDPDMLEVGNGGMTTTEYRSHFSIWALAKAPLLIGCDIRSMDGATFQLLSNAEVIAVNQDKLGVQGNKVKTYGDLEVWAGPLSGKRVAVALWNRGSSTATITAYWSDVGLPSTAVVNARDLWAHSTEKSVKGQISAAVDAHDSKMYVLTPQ
Assay [7] is filed under the species Bos taurus. Put plainly: Inhibition of bovine liver beta-galactosidase using p-nitrophenyl glycoside as substrate assessed as release of p-nitrophenol at 1000 uM by spectrometric analysis relative to control.
The target in assay [8] is T1, Alpha-mannosidase (Canavalia ensiformis) (UniProt C0HJB3).
T1 sequence (whole entry): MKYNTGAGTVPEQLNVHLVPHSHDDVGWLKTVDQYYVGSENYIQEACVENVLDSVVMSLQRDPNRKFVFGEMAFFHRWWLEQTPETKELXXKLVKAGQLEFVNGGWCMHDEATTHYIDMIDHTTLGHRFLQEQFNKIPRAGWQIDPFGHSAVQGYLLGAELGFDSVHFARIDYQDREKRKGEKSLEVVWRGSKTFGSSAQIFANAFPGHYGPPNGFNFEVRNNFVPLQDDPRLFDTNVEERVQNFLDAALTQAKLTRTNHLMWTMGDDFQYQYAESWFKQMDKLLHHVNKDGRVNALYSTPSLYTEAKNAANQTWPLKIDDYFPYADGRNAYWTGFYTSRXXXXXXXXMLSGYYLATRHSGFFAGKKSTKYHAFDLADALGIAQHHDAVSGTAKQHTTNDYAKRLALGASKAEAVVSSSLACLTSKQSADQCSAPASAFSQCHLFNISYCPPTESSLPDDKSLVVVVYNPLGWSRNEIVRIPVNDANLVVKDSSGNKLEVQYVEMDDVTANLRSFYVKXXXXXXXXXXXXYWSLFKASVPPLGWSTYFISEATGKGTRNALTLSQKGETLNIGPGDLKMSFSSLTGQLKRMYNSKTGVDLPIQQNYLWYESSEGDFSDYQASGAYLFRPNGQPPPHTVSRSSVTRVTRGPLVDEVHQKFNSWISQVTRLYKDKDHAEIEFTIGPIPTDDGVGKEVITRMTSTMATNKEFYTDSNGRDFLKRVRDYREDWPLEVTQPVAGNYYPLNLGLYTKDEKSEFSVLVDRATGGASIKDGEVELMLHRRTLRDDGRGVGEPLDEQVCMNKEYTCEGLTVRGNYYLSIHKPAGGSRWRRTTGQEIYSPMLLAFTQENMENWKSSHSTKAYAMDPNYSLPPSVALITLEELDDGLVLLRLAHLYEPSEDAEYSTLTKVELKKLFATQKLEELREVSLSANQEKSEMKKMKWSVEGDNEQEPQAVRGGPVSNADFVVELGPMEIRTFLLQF
As to the kind of experiment: Inhibition of jack bean alpha-mannosidase using p-nitrophenyl glycoside as substrate assessed as release of p-nitrophenol at 1000 uM by spectrometric analysis relative to control.

Another assay relates to Helix pomatia. Put plainly: Inhibition of snail beta-mannosidase using p-nitrophenyl glycoside as substrate assessed as release of p-nitrophenol at 1000 uM by spectrometric analysis relative to control.
Another assay is filed under the species Sus scrofa. As to the kind of experiment: Inhibition of porcine kidney Alpha alpha-trehalase using p-nitrophenyl glycoside as substrate assessed as release of p-nitrophenol at 1000 uM by spectrometric analysis relative to control.
A further assay deals with Aspergillus niger. Put plainly: Inhibition of Aspergillus niger amyloglucosidase using p-nitrophenyl glycoside as substrate assessed as release of p-nitrophenol at 1000 uM by spectrometric analysis relative to control.
Another assay relates to Penicillium decumbens. As to the kind of experiment: Inhibition of Penicillium decumbens alpha-L-rhamnosidase using p-nitrophenyl glycoside as substrate assessed as release of p-nitrophenol at 1000 uM by spectrometric analysis relative to control.
The test system of a further assay is Escherichia coli. As to the kind of experiment: Inhibition of Escherichia coli beta-glucuronidase using p-nitrophenyl glycoside as substrate assessed as release of p-nitrophenol at 1000 uM by spectrometric analysis relative to control.
The species entered for assay [9] is Bos taurus. Put plainly: Inhibition of bovine liver beta-glucuronidase using p-nitrophenyl glycoside as substrate assessed as release of p-nitrophenol at 1000 uM by spectrometric analysis relative to control.
The target of the next assay is T2, Alpha-mannosidase (Canavalia ensiformis, UniProt C0HJB3).
T2 sequence (C0HJB3 whole entry): T1 sequence (whole entry)
As to the kind of experiment: Inhibition of jack bean alpha-mannosidase using p-nitrophenyl glycoside as substrate assessed as release of p-nitrophenol by spectrometric analysis.

Another assay relates to CAKI-1. Put plainly: Cytotoxicity activity against human CAKI-1 cells incubated for 48 hrs by CCK-8 assay. It counts as functional, cell-based. Conditions: CAKI-1, 48 h. In general terms: Tetrazolium dyes change colour on reduction, which living cells bring about.
The next assay concerns 786-0. As to the kind of experiment: Cytotoxicity activity against human 786-0 cells incubated for 48 hrs by CCK-8 assay. To be noted: 786-0, 48 h. It counts as functional, cell-based.
Another assay concerns HepG2. Put plainly: Cytotoxicity activity against human HepG2 cells incubated for 48 hrs by CCK-8 assay. Format: functional, cell-based. Conditions: HepG2, 48 h.

For orientation: IC50 means the point on the concentration scale where inhibition reaches its midpoint. Take `C[C@@H]1C[C@H](O)[C@H]2[C@@H](O)[C@@H](O)CN2C1`: in assay [1], the half-maximal inhibitory concentration (IC50) amounted to 0.034 µM.

In general, inhibition refers to the percentage by which the read-out fell short of the control. `O[C@H]1[C@H]2[C@@H](O)CCCN2C[C@H]1O`: in [2], the IC50 came out at 51 µM. The inhibition in [3] is 0%; in the assay with Oryza sativa it was 0%; in the assay listed under Rattus norvegicus it was 0%; in [4] it was 0%; in the assay with Prunus dulcis, 3.2%; in the assay listed under Bos taurus [5], 4.5%. The inhibition was 0% in the assay filed under Homo sapiens; 0% in assay [6]; 0.8% in the assay filed under Bos taurus [7]; 51% in [8]; 0% in the assay with Helix pomatia; 0% in the assay listed under Sus scrofa. Further, the inhibition in the assay with Aspergillus niger was found to be 1.8%; in the assay with Penicillium decumbens, 47.5%; in the assay on Escherichia coli, 0%; in the assay filed under Bos taurus [9], 5.7%.

In the case of `C[C@@H]1[C@H](O)[C@H]2[C@@H](O)[C@@H](O)CN2C[C@@]1(C)O`, in [1], the concentration for half-maximal inhibition (IC50) amounted to 21.3 µM.

On to `O[C@H]1[C@H]2[C@H](O)CCCN2C[C@H]1O` [TRIDOLGOSIR], for which, in assay [2], the IC50 was determined as 0.28 µM. In addition, the inhibition is 0% in assay [3]; 31.2% with Oryza sativa; 13.1% in the assay filed under Rattus norvegicus; 0% in [4]; 2.1% with Prunus dulcis; 11.5% in the assay filed under Bos taurus [5]. The inhibition stood at 0% in the assay filed under Homo sapiens; 0% in [6]; 5.8% in the assay filed under Bos taurus [7]; 0.28% in assay [8]; 0% in the assay on Helix pomatia; 1% in the assay filed under Sus scrofa. The inhibition in the assay on Aspergillus niger is 8.6%; in the assay with Penicillium decumbens it was 34.2%; in the assay on Escherichia coli, 0%; in the assay filed under Bos taurus [9], 8.8%.

As for `CC(C)(C)c1ccc(CC[C@H]2CC[C@@H](O)[C@@H]3[C@H](O)[C@H](O)CN23)cc1`, the IC50 on Alpha-mannosidase was 0.42 µM.

On to `O[C@H]1[C@H]2[C@H](O)C[C@H](CCOCc3ccccc3)CN2C[C@H]1O`, for which the half-maximal inhibitory concentration (IC50) on Alpha-mannosidase worked out at 230 µM.

As to `O[C@@H]1[C@@H]2[C@H](O)CCCN2C[C@@H]1O`, the inhibition turned out to be 3.4% in [3]; 0% in the assay on Oryza sativa; 0% in the assay filed under Rattus norvegicus; 0% in assay [4]; 1% in the assay on Prunus dulcis; 0% in the assay listed under Bos taurus [5]. In addition, the inhibition in the assay filed under Homo sapiens was found to be 3.1%; in [6], 0%; in the assay filed under Bos taurus [7], 0%; in assay [8], 2.8%; in the assay on Helix pomatia, 11.7%; in the assay filed under Sus scrofa, 0%. The inhibition was 11.4% with Aspergillus niger, 58% with Penicillium decumbens, 0% with Escherichia coli and 8.8% in the assay listed under Bos taurus [9].

As for `O[C@@H]1[C@@H]2[C@H](O)CC(F)(F)CN2C[C@@H]1O`, the inhibition in assay [3] was 0%; in the assay on Oryza sativa it was 0%; in the assay filed under Rattus norvegicus, 2.7%; in [4], 2.2%; with Prunus dulcis, 0%; in the assay listed under Bos taurus [5], 10.2%. In addition, the inhibition in the assay listed under Homo sapiens turned out to be 0.7%; in assay [6] it was 0%; in the assay filed under Bos taurus [7] it was 0.8%; in assay [8], 44.8%; with Helix pomatia it was 0%; in the assay listed under Sus scrofa, 1.5%. Also, the inhibition with Aspergillus niger stood at 0.1%; in the assay with Penicillium decumbens, 63%; in the assay on Escherichia coli, 0%; in the assay listed under Bos taurus [9], 18.8%.

Consider `CC(C)(C)c1ccc(C(=O)C[C@@H]2CC[C@@H](O)[C@@H]3[C@H](O)[C@H](O)CN23)cc1`, for which, on Alpha-mannosidase, the IC50 is 2.54 µM.

For the compound `O[C@H]1[C@H]2[C@H](O)CC(F)(F)CN2C[C@H]1O`, the inhibition in assay [3] came to 0%; in the assay listed under Rattus norvegicus, 11.6%; in assay [4], 8.9%; in the assay with Prunus dulcis, 3.2%; in the assay filed under Bos taurus [5] it was 23.7%; in the assay listed under Homo sapiens it was 0%. Moreover, the inhibition in [6] was found to be 0.6%; in the assay filed under Bos taurus [7], 13.3%; in assay [8], 0.44%; with Helix pomatia, 40%; in the assay filed under Sus scrofa, 0%; in the assay on Aspergillus niger, 2.7%. Besides, the inhibition in the assay with Penicillium decumbens worked out at 20.4%; in the assay with Escherichia coli, 0%; in the assay listed under Bos taurus [9], 16.7%. Moreover, the concentration for half-maximal inhibition (IC50) in the assay on CAKI-1, in the assay on 786-0 and with HepG2 was greater than 200 µM throughout.

Turning to `O[C@@H]1[C@@H]2[C@@H](O)CCCN2C[C@@H]1O`, the half-maximal inhibitory concentration (IC50) in [1] came out at 0.13 µM. Besides, the inhibition in assay [3] worked out at 0%; with Oryza sativa it was 0%; in the assay listed under Rattus norvegicus, 26.5%; in [4], 3.4%; with Prunus dulcis, 7.4%; in the assay listed under Bos taurus [5], 33%. In addition, the inhibition is 4.8% in the assay filed under Homo sapiens; 0% in assay [6]; 48.3% in the assay listed under Bos taurus [7]; 7.2% in [8]; 0% in the assay on Helix pomatia; 17.7% in the assay with Aspergillus niger. Further, the results for the inhibition with Penicillium decumbens, with Escherichia coli and in the assay listed under Bos taurus [9] were 0.26%, 11.3% and 0%, respectively.

As to `O[C@@H]1[C@@H]2[C@@H](O)[C@H](O)[C@H](O)CN2C[C@@H]1O`, in assay [1], the half-inhibitory concentration (IC50) stood at 530 µM.

Consider `CC(C)(C)c1ccc(CC[C@@H]2CC[C@@H](O)[C@@H]3[C@H](O)[C@H](O)CN23)cc1`, for which, on Alpha-mannosidase, the IC50 stood at 3.7 µM.

As for `O=C(C[C@H]1CC[C@@H](O)[C@@H]2[C@H](O)[C@H](O)CN12)c1ccccc1`, the IC50 on Alpha-mannosidase was determined as 0.51 µM.

On to `O[C@H]1[C@H]2[C@H](O)C[C@H](F)CN2C[C@H]1O`, for which the inhibition is 1.7% in assay [3]; 19.1% in the assay filed under Rattus norvegicus; 6.6% in assay [4]; 2.1% in the assay on Prunus dulcis; 2.6% in the assay filed under Bos taurus [5]; 6% in the assay listed under Homo sapiens. Moreover, the inhibition in [6] amounted to 0%; in the assay listed under Bos taurus [7] it was 0%; in assay [8], 0.78%; with Helix pomatia, 5%; in the assay filed under Sus scrofa, 4.1%; in the assay on Aspergillus niger, 6.4%. Besides, the inhibition worked out at 14.4% in the assay on Penicillium decumbens, 11.3% in the assay with Escherichia coli and 6.8% in the assay filed under Bos taurus [9]. Also, the IC50 in the assay on CAKI-1, in the assay with 786-0 and in the assay on HepG2 was greater than 200 µM each time.
